Reference: PubChem BioAssay AID624207 (Sanford-Burnham Center for Chemical Genomics, 2012)
Active and inactive are the calls of the source.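 The calls were made as follows: active = compounds blocking the phosphatase with IC50 at or below a set limit; inactive = the rest.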

molecular target: Tyrosine-protein phosphatase non-receptor type 5 (Homo sapiens) (UniProt P54829); experiment: STEP phosphatase inhibitor potency, dose response, orthogonal assay for STEP inhibitor project, biochemical, colorimetric absorbance (AID 624207); settings: recombinant STEP, pNPP colorimetric absorbance
Sequence (P54829 whole entry, looked up): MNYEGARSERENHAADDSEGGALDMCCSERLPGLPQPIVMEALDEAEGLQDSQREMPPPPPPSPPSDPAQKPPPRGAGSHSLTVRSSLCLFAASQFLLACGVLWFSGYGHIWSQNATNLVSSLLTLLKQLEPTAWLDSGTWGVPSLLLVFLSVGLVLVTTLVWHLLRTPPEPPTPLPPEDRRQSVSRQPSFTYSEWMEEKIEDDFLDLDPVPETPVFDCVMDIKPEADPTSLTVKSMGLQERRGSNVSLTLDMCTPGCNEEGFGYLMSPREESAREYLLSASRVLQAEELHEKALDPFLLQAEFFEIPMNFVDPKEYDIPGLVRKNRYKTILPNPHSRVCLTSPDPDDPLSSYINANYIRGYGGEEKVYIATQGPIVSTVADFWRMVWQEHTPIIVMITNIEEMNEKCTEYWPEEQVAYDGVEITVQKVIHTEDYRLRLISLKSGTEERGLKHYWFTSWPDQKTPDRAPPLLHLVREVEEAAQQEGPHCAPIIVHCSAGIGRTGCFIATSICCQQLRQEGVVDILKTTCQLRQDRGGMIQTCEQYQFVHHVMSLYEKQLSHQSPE

Q: With O=C1C(=O)N(CCCO)C(c2ccc(Br)cc2)/C1=C(\O)c1ccc(Br)cc1 (centres undefined) as the compound, how does the IC50 read?
A: inactive

Q: Which IC50 does the source give for CSc1ccc(C=NNc2ccc(S(=O)(=O)Nc3ccccc3C(=O)O)cc2[N+](=O)[O-])cc1 here?
A: 4.99 µM

Q: For CCOc1cc(/C=N/N=C2/NC(=O)C(CC(=O)O)S2)ccc1OCc1ccc(Cl)cc1Cl (centres undefined), which IC50 is on record?
A: > 80 µM (inactive)

Q: With COc1ccc(OC)c(N2C(=O)[C@@H]3C(c4ccccc4Cl)=NO[C@@H]3C2=O)c1 as the compound, how does the IC50 read?
A: > 80 µM (inactive)

Q: With S=C1NC(C23CC4CC(CC(C4)C2)C3)=CC(c2ccc3c(c2)OCO3)N1 (centres undefined) as the compound, how does the IC50 read?
A: > 80 µM (inactive)

Q: For CC1=C(O)C(=O)C(C2=C(O)C(=O)C(C)=C(O)C2=O)=C(O)C1=O, which IC50 is on record?
A: > 80 µM (inactive)

Q: How did the IC50 turn out when S=C1NC2=C(CCCC2=C2SCCS2)C(c2ccccc2)N1 (centres undefined) was run?
A: inactive

Q: O=C(NN=Cc1ccccc1O)c1cccc([N+](=O)[O-])c1 was tested. Which IC50 did it give?
A: 15.8 µM

Q: Which IC50 does the source give for COc1ccc(/C=N/N=C2/NC(=O)C(CC(=O)O)S2)cc1OCc1ccc(Cl)cc1Cl (centres undefined) here?
A: 13.6 µM
